Values after ≈ are worked out from the molar mass of the structure shown.
Assays:
FaSSIF solubility = assay type: physicochemical; conditions: kinetic from dmso stock, Fasted state simulated intestinal fluid, 2 hr at 25° C.
Method: (§1) Test compounds were prepared as 10 mM stocks in DMSO and 15 μl samples transferred in duplicate into 1.5 mL glass flat bottom vials (BioTech Solutions). Fasted state simulated intestinal fluid (FaSSIF) or PBS (pH 7.4) was added to each vial to final volume of 500 μl. One PTFE encapsulated stir stick (V&P Scientific) was placed in each vial before sealing with PTFE/SIL plugs (BioTech Solutions). Vials were shaken at 1100 rpm for 2 hr at 25° C. Samples were then filtered through MultiScreen Solvinert filter plates (Millipore) via vacuum filtration. Aliquots of filtrate (5 μl) plus 5 μl DMSO were diluted in 490 μl 50% acetonitrile in water containing internal standard. The filtrate was analysed and quantified against a standard of known concentration using LC-MS/MS. Solubility values of the test compound and control compound were calculated as follows: [Sample]=(Area ratiosample*INJ VOL STD*DFsample*[STD])/(Area ratio STD*INJ VOLsample).

[1] = Microsomal clearance assay, rat liver microsomes; assay type: in vitro ADME; conditions: average value from two experiments, read-out: Rat liver microsomes intrinsic clearance (CLint)
Method: The microsomal stability of test compounds was evaluated using rat liver microsomes (BioIVT) with and without the cofactors nicotinamide adenine dinucleotide phosphate (NADPH) and uridine-diphosphate-glucuronic acid (UDPGA). Reactions were performed in a final volume of 250 μl pre-warmed (37° C.) 100 mM phosphate buffer containing 5 mM MgCl2, 0.025 mg/ml alamethicin, and 0.5 mg/ml rat liver microsomes. NADPH and UDPGA were included at 1 mM and 2 mM respectively, where appropriate. Reactions were started with the addition of 1 μM (final concentration) test compound. Verapamil was used as the positive control. Solutions were incubated in a water bath at 37° C. and aliquots collected at 0.5, 5, 15, 30 and 60 min. Reactions were stopped by the addition of 5 volumes of cold acetonitrile with internal standards (200 nM caffeine and 100 nM tolbutamide). Samples were centrifuged at 3220 g for 40 min. An aliquot of supernatant was diluted 1:1 In ultra-pure H20, then used for LC-MS/MS analysis. Peak areas were determined from extracted ion chromatograms. The slope value, k, was determined by linear regression of the natural logarithm of the remaining percentage of the parent drug vs. incubation time curve. The in vitro half-life (in vitro t1/2) was determined from the slope value: in vitro t1/2=0.693/k. Conversion of the in vitro t1/2 (min) into the in vitro intrinsic clearance (in vitro CLint, in μL/min/mg protein) was done using the following equation (mean of duplicate determinations): in vitro Clint=(0.693/t1/2)*(Vol of incubation (μl)/amount of protein (mg)).

PBS solubility = assay type: physicochemical; conditions: aqueous buffer, kinetic from dmso stock; PBS pH 7.4, 2 hr at 25° C.
Method: as §1

mPTP = mPTP activity assay in isolated rat liver mitochondria (Ca2+ retention, Fluo5N, FLIPR); assay type: biochemical; conditions: for mPTP Rat liver pIC50*: isolated rat liver mitochondria, average value from multiple experiments (n ≥ 2)
Excerpt: Pharmacological inhibition or modulation of the mPTP can be measured in well characterised ‘Ca^2+ retention’ assays performed in isolated mitochondria. In vitro, isolated mitochondria rapidly sequester exogenous Ca^2+ until the intramitochondrial Ca^2+ concentration reaches the threshold for mPTP activation. Once the pore is activated, mitochondrial integrity is compromised and the stored Ca^2+ is released. The distribution of Ca^2+ between extra- and intra-mitochondrial compartments can be measured in real time with the use of membrane-impermeant Ca^2+ sensitive fluorescent dyes. Depending on the configuration of the assay, inhibition or modulation of the mPTP either delays the opening of the pore or increases the concentration of Ca^2+ required to induce mPTP opening.
mPTP activity was measured in mitochondria freshly isolated from female Sprague Dawley (250 to 300 gram) rat livers using the following method. Cervical dislocation was performed on the rat. The liver was then perfused in-situ with ˜40 ml cold Dulbecco's Phosphate Buffered Saline (DPBS) prior to dissection and transferred into 30 ml Isolation Buffer (250 mM Sucrose, 10 mM KCl, 1 mM EGTA, 1 mM EDTA, 25 mM HEPES, adjusted to pH 7.5 with 1 M NaOH). Each lobe of the liver was then removed from the buffer, minced using tweezers and a scalpel into ˜5 mm pieces then transferred into a 50 ml Potterton dounce homogenization tube on ice containing 30 ml ice-cold centrifugation buffer (300 mM Trehalose, 25 mM HEPES, 1 mM EGTA, 1 mM EDTA, 10 mM KCl, adjusted to pH 7.5 with 1 M NaOH and supplemented with 0.1% bovine serum albumin (BSA) and complete protease inhibitor cocktail (one tablet of inhibitor per 50 mls of buffer). Homogenisation was carried out using a teflon pestle at 1800 rpm. The slurry was centrifuged at 800 g for 10 min at 4° C., then the supernatant centrifuged at 10,000 g for 10 min. The pellet was washed once with FLIPR assay buffer (75 mM Mannitol, 25 mM Sucrose, 5 mM Potassium Phosphate Monobasic, 20 mM Tris base, 100 mM KCl, 0.1% BSA adjusted to pH 7.4 with 5 M HCl) centrifuged again, then resuspended in FLIPR assay buffer to a concentration of 8.8 mg/ml protein.
Test compounds (10 mM stock in DMSO) were serially diluted in DMSO in half log steps to generate 10 test concentrations (final concentrations in assay 30 μM to 1 nM). An intermediate dilution of 5 μl DMSO samples into 247 μl FLIPR assay buffer was carried out prior to transfer of 5 μl into duplicate wells of a 384 well polypropylene assay plate. Control wells were 0.5% (v/v) DMSO and 5 μM cyclosporin A.
A stock mitochondria/Fluo5N assay solution was prepared in 5.6 ml FLIPR assay buffer (at RT) supplemented with succinate disodium salt (10 mM), rotenone (1 μM), Fluo5N pentapotassium salt (2 μM) and 1 ml mitochondria suspension, then transferred (15 μl) into the assay plate containing test compounds and incubated for 10 min at RT. Assay plates were then transferred to a FLIPR Tetra plate reader (Molecular Devices). Dye fluorescence was then measured every 3 sec for a total of 10 min. After 12 sec, a 2.5 μl bolus of CaCl2 (75 μM) was added from a source plate containing 675 μM CaCl2 in FLIPR assay buffer. IC50 values for test compounds were calculated using the fluorescence value collected at the 10 min timepoint with % inhibition calculated using the DMSO control and cyclosporin A values as […] respectively.

[2] = Hepatocyte clearance assay, rat; assay type: in vitro ADME; conditions: cryopreserved primary rat hepatocytes, average value from two experiments, read-out: Rat heps intrinsic clearance (CLint)
Method: (§2) In vitro clearance studies were performed in primary rat and human hepatocytes (BioIVT). Vials of cryopreserved rat or human hepatocytes were thawed in a 37° C. water bath for 2 min. Cells were transferred into thawing medium (Williams' Medium E containing 30% Percoll, 1× GlutaMAX-1, 15 mM HEPES, 5% fetal bovine serum (FBS), 4 μg/ml insulin, 1 μM dexamethasone), centrifuged at 100 g for 10 min then resuspended in culture medium (Leibovitz's L-15 Medium) at a concentration of 0.5×10^6 viable cells/mL (number of viable cells assessed using AO/PI staining). Hepatocytes (198 μL) were transferred into wells of a 96-well non-coated plate and placed in a 37° C. incubator for 10 min. Test compound solutions were prepared from 10 mM stocks in DMSO, diluted to 100 μM in 50% (v/v in water) acetonitrile. Test compound samples (2 μl) were added to each well of hepatocytes and incubated at 37° C. Samples (25 μl) were collected at t=0, 15, 30, […] and 120 min, mixed with 6 volumes (150 μl) of acetonitrile containing internal standard (100 nM alprazolam, 200 nM caffeine and 100 nM tolbutamide), vortexed for 5 min and centrifuged for 45 min at 3220 g. An aliquot of supernatant (100 μL) was diluted with 100 μL ultra-pure water, and the mixture was used for LC/MS/MS analysis. All incubations were performed in duplicate. Peak areas were determined from extracted ion chromatograms. The slope value, k, was determined by linear regression of the natural logarithm of the remaining percentage of the parent drug vs. incubation time curve. The in vitro half-life (in vitro t1/2) was determined from the slope value: in vitro t1/2=0.693/k. Conversion of the in vitro t1/2 (in min) into the in vitro intrinsic clearance (in vitro CLint, in μL/min/1×10^6 cells) was done using the following equation (mean of duplicate determinations): • in vitro CLint=kV/N • V=incubation volume (0.2 mL) • N=number of hepatocytes per well (0.1×10^6 cells). Microsomal Clearance Assay

[3] = Hepatocyte clearance assay, human; assay type: in vitro ADME; conditions: cryopreserved primary human hepatocytes, average value from two experiments, read-out: Human heps intrinsic clearance (CLint)
Method: as §2

Row | Compound | solubility at 2 h (FaSSIF solubility) [µM] | microsomal CLint at 1 µM [1] [µL/min/mg] | solubility at 2 h (PBS solubility) [µM] | mPTP Rat liver pIC50* (mPTP) | hepatocyte CLint at 1 µM [2] [µL/min/1e6 cells] | hepatocyte CLint at 1 µM [3] [µL/min/1e6 cells] | activity in the rat liver mitochondria assay (mPTP; comparison among Example compounds, in words)
1 | Cc1c(F)cccc1NC(=O)/C=C/c1ccc2cn[nH]c2c1C [Example 1, (E)-N-(3-fluoro-2-methylphenyl)-3-(7-methyl-1H-indazol-6-yl)acrylamide] | 2 (≈ 0.619 µg/mL) | 118 | 0.11 (≈ 0.034 µg/mL) | 7.1 |  |  | 
2 | O=C(/C=C/c1ccc2cn[nH]c2c1)NC1CCc2cccc(F)c21 (centres unmarked) [Example 5, (E)-N-(7-fluoro-2,3-dihydro-1H-inden-1-yl)-3-(1H-indazol-6-yl)acrylamide] |  | 55 | 2.5 (≈ 0.803 µg/mL) | 6.3 |  |  | 
3 | O=C(/C=C/c1cc(Cl)c2cn[nH]c2c1)NC1CCc2ccccc21 (centres unmarked) [Example 13, (E)-3-(4-chloro-1H-indazol-6-yl)-N-(2,3-dihydro-1H-inden-1-yl)acrylamide] | 4 (≈ 1.35 µg/mL) |  |  | 7.0 | 95 |  | 
4 | O=C(/C=C/c1ccc2cn[nH]c2c1)NC1CCc2ccccc21 (centres unmarked) [Example 2, (E)-N-(2,3-dihydro-1H-inden-1-yl)-3-(1H-indazol-6-yl)acrylamide] |  | 59 | 10 (≈ 3.03 µg/mL) | 7.6 | 33 | 14 | 
5 | O=C(/C=C/c1ccc2cn[nH]c2c1)Nc1ccccc1CN1CC(F)C1 [Example 31, (E)-N-(2-((3-fluoroazetidin-1-yl)methyl)phenyl)-3-(1H-indazol-6-yl)acrylamide] |  |  | 59 (≈ 20.7 µg/mL) | 6.3 | 101 | 36 | 
6 | C[C@@H]1CCCC[C@H]1NC(=O)/C=C/c1ccc2cn[nH]c2c1 (racemic) [Example 4, (E)-3-(1H-indazol-6-yl)-N-((1R,2R)-2-methylcyclohexyl)acrylamide] |  | 39 | 5.2 (≈ 1.47 µg/mL) | 6.3 | 68 |  | 
7 | Cc1c(F)cccc1NC(=O)/C=C/c1cnc2cn[nH]c2c1 [Example 34, (E)-N-(3-fluoro-2-methylphenyl)-3-(1H-pyrazolo[4,3-b]pyridin-6-yl)acrylamide] |  | 51 | 13 (≈ 3.85 µg/mL) | 6.0 |  |  | 
8 | O=C(/C=C/c1cc(F)c2cn[nH]c2c1)NC1CCc2ccccc21 (centres unmarked) [Example 11, (E)-N-(2,3-dihydro-1H-inden-1-yl)-3-(4-fluoro-1H-indazol-6-yl)acrylamide] |  | 58 | 1.4 (≈ 0.45 µg/mL) | 7.3 | 45 | 26.7 | 
9 | O=C(/C=C/c1ccc2cn[nH]c2c1)NC1CCc2cc(F)ccc21 (centres unmarked) [Example 7, (E)-N-(5-fluoro-2,3-dihydro-1H-inden-1-yl)-3-(1H-indazol-6-yl)acrylamide] |  | 38 | 4.1 (≈ 1.32 µg/mL) | 7.2 |  |  | 
10 | Cc1ccc(F)c(C)c1NC(=O)/C=C/c1ccc2cn[nH]c2c1 [Example 28, (E)-N-(3-fluoro-2,6-dimethylphenyl)-3-(1H-indazol-6-yl)acrylamide] |  |  |  | 8.1 |  | 21 | highest activity
11 | O=C(/C=C/c1ccc2cn[nH]c2c1)NC1CCc2c(F)cccc21 (centres unmarked) [Example 8, (E)-N-(4-fluoro-2,3-dihydro-1H-inden-1-yl)-3-(1H-indazol-6-yl)acrylamide] |  | 41 | 6.3 (≈ 2.02 µg/mL) | 6.9 |  |  | 
12 | O=C(/C=C/c1ccc2cn[nH]c2c1F)NC1CCc2ccccc21 (centres unmarked) [Example 9, (E)-N-(2,3-dihydro-1H-inden-1-yl)-3-(7-fluoro-1H-indazol-6-yl)acrylamide] | 11 (≈ 3.53 µg/mL) |  | 0.4 (≈ 0.129 µg/mL) | 7.2 | 61 |  | 

Reference: US12497359B2, “Acrylamide derivatives” (NRG Therapeutics Ltd, priority 2020, dated 2025)
